ChEMBL document CHEMBL5316333, “Potent Long-Acting Inhibitors Targeting the HIV-1 Capsid Based on a Versatile Quinazolin-4-one Scaffold” (J Med Chem, 2023)

Key:
[1] = system: Human immunodeficiency virus 1; test: Antiviral activity against HIV-1 NLRep-Rluc infected in human MT2 cells assessed as inhibition of viral growth incubated for 96 hrs by renilla luciferase assay; type: functional, organism-based
[2] = Clearance in Sprague-Dawley rat at 1 mg/kg, iv and measured upto 96 hrs by LC-MS/MS analysis; type: ADME, organism-based; conditions: in vivo
MT2 = test: Cytotoxicity against human MT2 cells assessed as reduction in cell viability incubated for 4 days by XTT assay; type: toxicity, cell-based; conditions: mt2, 96 h, 96 h, time 4 day
[3] = Human immunodeficiency virus 1, NLRep-Rluc, MT2, 96 h

Compound	EC50 [1, 3]	clearance [2]	CC50 (MT2)	EC50 ([1]; mt2)
Cn1nc(NS(C)(=O)=O)c2c(Cl)ccc(-n3c([C@H](Cc4cc(F)cc(F)c4)NC(=O)Cn4nc(C(F)F)c5c4C(F)(F)[C@@H]4C[C@H]54)nc4cc(N5CCC5)ccc4c3=O)c21	0.11 nM			
Cn1nc(NS(C)(=O)=O)c2c(Cl)ccc(-n3c([C@H](Cc4cc(F)cc(F)c4)NC(=O)Cn4nc(C(F)F)c5c4C(F)(F)[C@@H]4C[C@H]54)nc4ccc(F)cc4c3=O)c21	0.045 nM	29 mL/min/kg		
Cn1nc(NS(C)(=O)=O)c2c(Cl)ccc(-n3c([C@H](Cc4cc(F)cc(F)c4)NC(=O)Cn4nc(C(F)F)c5c4C(F)(F)[C@@H]4C[C@H]54)nc4cc(C5CC5)ccc4c3=O)c21	0.14 nM	4.3 mL/min/kg		
CCN(CC)c1ccc2c(=O)n(-c3ccc(Cl)c4c(NS(C)(=O)=O)nn(C)c34)c([C@H](Cc3cc(F)cc(F)c3)NC(=O)Cn3nc(C(F)F)c4c3C(F)(F)[C@@H]3C[C@H]43)nc2c1	0.2 nM			
COc1cccc2c(=O)n(-c3ccc(Cl)c4c(NS(C)(=O)=O)nn(C)c34)c([C@H](Cc3cc(F)cc(F)c3)NC(=O)Cn3nc(C(F)F)c4c3C(F)(F)[C@@H]3C[C@H]43)nc12	0.095 nM			
COc1ccc2c(=O)n(-c3ccc(Cl)c4c(NS(C)(=O)=O)nn(C)c34)c([C@H](Cc3cc(F)cc(F)c3)NC(=O)Cn3nc(C(F)F)c4c3C(F)(F)[C@@H]3C[C@H]43)nc2c1 (stereo in doubt; 13b)			> 1000 nM	9.8 nM
Cn1nc(NS(C)(=O)=O)c2c(Cl)ccc(-n3c([C@H](Cc4cc(F)cc(F)c4)NC(=O)Cn4nc(C(F)F)c5c4C(F)(F)[C@@H]4C[C@H]54)nc4cc(N5CCCOCC5)ccc4c3=O)c21	0.13 nM			
Cn1nc(NS(C)(=O)=O)c2c(Cl)ccc(-n3c([C@H](Cc4cc(F)cc(F)c4)NC(=O)Cn4nc(C(F)F)c5c4C(F)(F)[C@@H]4C[C@H]54)nc4cc(N5CCC6(CC5)COC6)ccc4c3=O)c21	0.13 nM			
Cn1nc(NS(C)(=O)=O)c2c(Cl)ccc(-n3c([C@H](Cc4cc(F)cc(F)c4)NC(=O)Cn4nc(C(F)F)c5c4C(F)(F)[C@@H]4C[C@H]54)nc4cc(N5CCO[C@@H](C(F)(F)F)C5)ccc4c3=O)c21	0.081 nM			
Cn1nc(NS(C)(=O)=O)c2c(Cl)ccc(-n3c([C@H](Cc4cc(F)cc(F)c4)NC(=O)Cn4nc(C(F)F)c5c4C(F)(F)[C@@H]4C[C@H]54)nc4cc(N5CCOCC5)ccc4c3=O)c21	0.037 nM	16 mL/min/kg		
Cn1nc(NS(C)(=O)=O)c2c(Cl)ccc(-n3c([C@H](Cc4cc(F)cc(F)c4)NC(=O)Cn4nc(C(F)F)c5c4C(F)(F)[C@@H]4C[C@H]54)nc4cc(N5CCS(=O)(=O)CC5)ccc4c3=O)c21	0.47 nM			
Cn1nc(NS(C)(=O)=O)c2c(Cl)ccc(-n3c([C@H](Cc4cc(F)cc(F)c4)NC(=O)Cn4nc(C(F)F)c5c4C(F)(F)[C@@H]4C[C@H]54)nc4cc(N5C6COCC5COC6)ccc4c3=O)c21	0.24 nM			
Cn1nc(NS(C)(=O)=O)c2c(Cl)ccc(-n3c([C@H](Cc4cc(F)cc(F)c4)NC(=O)Cn4nc(C(F)F)c5c4C(F)(F)[C@@H]4C[C@H]54)nc4cc(C#N)ccc4c3=O)c21	0.017 nM	82 mL/min/kg		
Cn1nc(NS(C)(=O)=O)c2c(Cl)ccc(-n3c([C@H](Cc4cc(F)cc(F)c4)NC(=O)Cn4nc(C(F)F)c5c4C(F)(F)[C@@H]4C[C@H]54)nc4cc(C(C)(C)O)ccc4c3=O)c21	0.15 nM	26 mL/min/kg		
Cn1nc(NS(C)(=O)=O)c2c(Cl)ccc(-n3c([C@H](Cc4cc(F)cc(F)c4)NC(=O)Cn4nc(C(F)F)c5c4C(F)(F)[C@@H]4C[C@H]54)nc4cc(C(C)(F)F)ccc4c3=O)c21	0.078 nM	2.8 mL/min/kg		
Cn1nc(NS(C)(=O)=O)c2c(Cl)ccc(-n3c([C@H](Cc4cc(F)cc(F)c4)NC(=O)Cn4nc(C(F)F)c5c4C(F)(F)[C@@H]4C[C@H]54)nc4cc(C(C)(C)C)ccc4c3=O)c21	0.13 nM	19 mL/min/kg		
Cn1nc(NS(C)(=O)=O)c2c(Cl)ccc(-n3c([C@H](Cc4cc(F)cc(F)c4)NC(=O)Cn4nc(C(F)F)c5c4C(F)(F)[C@@H]4C[C@H]54)nc4cc(N5CCOC(C)(C)C5)ccc4c3=O)c21	0.05 nM	9.6 mL/min/kg		
Cn1nc(NS(C)(=O)=O)c2c(Cl)ccc(-n3c([C@H](Cc4cc(F)cc(F)c4)NC(=O)Cn4nc(C(F)F)c5c4C(F)(F)[C@@H]4C[C@H]54)nc4ccccc4c3=O)c21 (stereo in doubt; 13a)			> 1000 nM	81 nM
Cn1nc(NS(C)(=O)=O)c2c(Cl)ccc(-n3c([C@H](Cc4cc(F)cc(F)c4)NC(=O)Cn4nc(C(F)F)c5c4C(F)(F)[C@@H]4C[C@H]54)nc4cc(S(C)(=O)=O)ccc4c3=O)c21	0.15 nM	78 mL/min/kg		

Compound	EC50 [1, 3]	clearance [2]	CC50 (MT2)	EC50 ([1]; mt2)
Cn1nc(NS(C)(=O)=O)c2c(Cl)ccc(-n3c([C@H](Cc4cc(F)cc(F)c4)NC(=O)Cn4nc(C(F)F)c5c4C(F)(F)[C@@H]4C[C@H]54)nc4cc(Br)ccc4c3=O)c21	0.053 nM			
Cn1nc(NS(C)(=O)=O)c2c(Cl)ccc(-n3c([C@H](Cc4cc(F)cc(F)c4)NC(=O)Cn4nc(C(F)F)c5c4C(F)(F)[C@@H]4C[C@H]54)nc4cc(N5CCCCC5)ccc4c3=O)c21	0.27 nM	11 mL/min/kg		
Cn1nc(NS(C)(=O)=O)c2c(Cl)ccc(-n3c([C@H](Cc4cc(F)cc(F)c4)NC(=O)Cn4nc(C(F)F)c5c4C(F)(F)[C@@H]4C[C@H]54)nc4cccc(F)c4c3=O)c21	0.13 nM			
COc1ccc2c(=O)n(-c3ccc(Cl)c4c(NS(C)(=O)=O)nn(C)c34)c([C@H](Cc3cc(F)cc(F)c3)NC(=O)Cn3nc(C(F)F)c4c3C(F)(F)[C@@H]3C[C@H]43)nc2c1F	0.13 nM	11 mL/min/kg		
Cn1nc(NS(C)(=O)=O)c2c(Cl)ccc(-n3c([C@H](Cc4cc(F)cc(F)c4)NC(=O)Cn4nc(C(F)F)c5c4C(F)(F)[C@@H]4C[C@H]54)nc4cc(N5C[C@H]6CC[C@@H](C5)O6)ccc4c3=O)c21	0.064 nM			
Cn1nc(NS(C)(=O)=O)c2c(Cl)ccc(-n3c([C@H](Cc4cc(F)cc(F)c4)NC(=O)Cn4nc(C(F)F)c5c4C(F)(F)[C@@H]4C[C@H]54)nc4cc(N5CCCC5)ccc4c3=O)c21	0.23 nM			
CN1CCN(c2ccc3c(=O)n(-c4ccc(Cl)c5c(NS(C)(=O)=O)nn(C)c45)c([C@H](Cc4cc(F)cc(F)c4)NC(=O)Cn4nc(C(F)F)c5c4C(F)(F)[C@@H]4C[C@H]54)nc3c2)CC1	0.15 nM	60 mL/min/kg		
CO[C@@H]1CCN(c2ccc3c(=O)n(-c4ccc(Cl)c5c(NS(C)(=O)=O)nn(C)c45)c([C@H](Cc4cc(F)cc(F)c4)NC(=O)Cn4nc(C(F)F)c5c4C(F)(F)[C@@H]4C[C@H]54)nc3c2)C1	0.058 nM			
COc1cc(OC)c2c(=O)n(-c3ccc(Cl)c4c(NS(C)(=O)=O)nn(C)c34)c([C@H](Cc3cc(F)cc(F)c3)NC(=O)Cn3nc(C(F)F)c4c3C(F)(F)[C@@H]3C[C@H]43)nc2c1	0.064 nM	65 mL/min/kg		
C[C@@H]1CN(c2ccc3c(=O)n(-c4ccc(Cl)c5c(NS(C)(=O)=O)nn(C)c45)c([C@H](Cc4cc(F)cc(F)c4)NC(=O)Cn4nc(C(F)F)c5c4C(F)(F)[C@@H]4C[C@H]54)nc3c2)C[C@H](C)N1C	0.091 nM			
Cn1nc(NS(C)(=O)=O)c2c(Cl)ccc(-n3c([C@H](Cc4cc(F)cc(F)c4)NC(=O)Cn4nc(C(F)F)c5c4C(F)(F)[C@@H]4C[C@H]54)nc4cc(F)ccc4c3=O)c21	0.041 nM	40 mL/min/kg		
Cn1nc(NS(C)(=O)=O)c2c(Cl)ccc(-n3c([C@H](Cc4cc(F)cc(F)c4)NC(=O)Cn4nc(C(F)F)c5c4C(F)(F)[C@@H]4C[C@H]54)nc4cc(N5CC(C)(C)OC(C)(C)C5)ccc4c3=O)c21	0.12 nM			
Cn1nc(NS(C)(=O)=O)c2c(Cl)ccc(-n3c([C@H](Cc4cc(F)cc(F)c4)NC(=O)Cn4nc(C(F)F)c5c4C(F)(F)[C@@H]4C[C@H]54)nc4cc(N5[C@@H]6CC[C@H]5COC6)ccc4c3=O)c21	0.057 nM			
COc1cccc2nc([C@H](Cc3cc(F)cc(F)c3)NC(=O)Cn3nc(C(F)F)c4c3C(F)(F)[C@@H]3C[C@H]43)n(-c3ccc(Cl)c4c(NS(C)(=O)=O)nn(C)c34)c(=O)c12 (stereo in doubt; 13d)			> 1000 nM	130 nM
Cn1nc(NS(C)(=O)=O)c2c(Cl)ccc(-n3c([C@H](Cc4cc(F)cc(F)c4)NC(=O)Cn4nc(C(F)F)c5c4C(F)(F)[C@@H]4C[C@H]54)nc4cc(N5CCOCC5=O)ccc4c3=O)c21	0.11 nM			
COC1CCN(c2ccc3c(=O)n(-c4ccc(Cl)c5c(NS(C)(=O)=O)nn(C)c45)c([C@H](Cc4cc(F)cc(F)c4)NC(=O)Cn4nc(C(F)F)c5c4C(F)(F)[C@@H]4C[C@H]54)nc3c2)CC1	0.12 nM			
Cn1nc(NS(C)(=O)=O)c2c(Cl)ccc(-n3c([C@H](Cc4cc(F)cc(F)c4)NC(=O)Cn4nc(C(F)F)c5c4C(F)(F)[C@@H]4C[C@H]54)nc4cc(N5CC6(COC6)C5)ccc4c3=O)c21	0.064 nM	18 mL/min/kg		
Cn1nc(NS(C)(=O)=O)c2c(Cl)ccc(-n3c([C@H](Cc4cc(F)cc(F)c4)NC(=O)Cn4nc(C(F)F)c5c4C(F)(F)[C@@H]4C[C@H]54)nc4cc(Cl)ccc4c3=O)c21	0.058 nM			
COc1ccc2nc([C@H](Cc3cc(F)cc(F)c3)NC(=O)Cn3nc(C(F)F)c4c3C(F)(F)[C@@H]3C[C@H]43)n(-c3ccc(Cl)c4c(NS(C)(=O)=O)nn(C)c34)c(=O)c2c1 (stereo in doubt; 13c)				38 nM
